{"source": "patent US20220054494A1", "about": "“METHODS FOR TREATING BLADDER AND URETHRA DYSFUNCTION AND DISEASE” (University of Pittsburgh - Of the Commonwealth System of …, priority 2019, published 2022)", "format_in_all_cases": "in vivo, rat", "key": {"CYP-treated rats": {"test_system": "CYP-treated rats", "assay": "Voiding analysis in cyclophosphamide (CYP) cystitis model", "settings": "CYP (75 mg/kg i.p.) female Sprague Dawley rats; oral 8-AG 5 mg/kg/day starting one week prior to CYP", "method": "Animals: Female Sprague Dawley rats were employed in this example (Charles River; Wilmington, Mass.). Three groups of animals were included. Group 1 received an i.p. injection of saline and was used as a control; groups 2 and 3 received an i.p. injection of cyclophosphamide (CYP, SIGMA-ALDRICH®, St Louis, Mo., day 0, 3, 6, sacrifice day 8, 75 mg/kg, i.p.) with group 3 treated with oral 8-AG (5 mg/kg/day; starting one week prior to CYP). CYP induced bladder inflammation and is a well-established pre-clinical model for BPS/IC.\nVoiding Analysis: Untreated, CYP-treated, and 8-AG-treated CYP rats were placed in metabolic cages (24 hr; once per week) for the duration of the study. The light cycle was from 7:00 AM to 7:00 PM, and food and water were provided ad libitum. […] Data were averaged for 24 h and analyzed for 12-h periods during the day (7:00 AM-7:00 PM) and night (7:00 PM-7:00 AM). Voiding frequency, total voided volume, and volume per void were analyzed. Voiding frequency was calculated as the number of voiding events per hour during 24 hr and during the 12-hr day and 12-hr night periods. Volume per void, which defines bladder capacity, was calculated as an average of the voids occurring during these periods."}, "cleaved caspase 3": {"test_system": "cleaved caspase 3", "assay": "Western immunoblotting, cleaved caspase 3", "settings": "aged rats; oral 8-AG 5 mg/kg/day, 6 weeks", "method": "Western immunoblotting: One half of each bladder preparation was homogenized using Lysing Matrix D in a FastPrep 24 instrument (MP Biomedicals, Solon, Ohio) in HBSS (5 mM KCl, 0.3 mM KH2PO4, 138 mM NaCl, 4 mM NaHO3, 0.3 mM Na2HCO3, 0.3 mM Na2HPO4, 5.6 mM glucose and 10 mM Hepes, pH 7.4) containing complete protease inhibitor cocktail (1 tablet/10 ml, ROCHE®, Indianapolis, Ind.)) and phosphatase inhibitor cocktail (SIGMA®, 1:100). After centrifugation (13000 rpm; 15 min at 4° C.), the membrane protein fraction was prepared by suspending the membrane pellets in lysis buffer containing 0.3 M NaCl, 50 mM Tris-HCl (pH 7.6) and 0.5% Triton X-100 and the same concentration of protease inhibitors as above. The suspensions were incubated on ice and centrifuged (13000 rpm; 15 min at 4° C.). The protein concentrations of the combined supernatants were determined using the PIERCE® BCA protein assay (THERMO SCIENTIFIC®, Rockford, Ill.). After denaturation (100° C. for 5 min) in the presence of Laemmli sample buffer, lysate from each sample was separated on a 4-15% TGX Stain-Free SDS-PAGE gel (BIO-RAD® Laboratories, Hercules, Calif.). As a loading control, total protein per sample was determined using Bio-Rad® Stain Free SDS-PAGE gel technology. UV-activated protein fluorescence was imaged on a CHEMIDOC® MP (BIO-RAD®). […] The volume (intensity) of each protein species was determined and normalized to total protein using Image Lab software (BIO-RAD®)."}, "hydroxyproline": {"test_system": "hydroxyproline", "assay": "Hydroxyproline in detrusor smooth muscle (indicator of fibrosis)", "settings": "aged rats; oral 8-AG 5 mg/kg/day, 6 weeks"}, "[1]": {"test_system": "urethral smooth muscle and external urethral sphincter (striated muscle)", "assay": "Transmission electron microscopy of urethral smooth muscle and external urethral sphincter", "settings": "aged rats; oral 8-AG 5 mg/kg/day, 6 weeks", "excerpt": "Damage to the muscles or lack of hormonal stimulation are major contributing factors to urinary incontinence, which can lead to impaired bladder, emptying, urgency, and incontinence. The methods and materials used (such as for western immunoblotting and transmission electron microscopy) are the same as Example 1 with the tissues utilized for examination of muscle and mitochondrial morphology being the proximal urethral sphincter muscle and striated muscle of the external sphincter.\nTransmission electron microscopy (TEM): The other half of each urinary bladder, proximal urethra, or external urethral sphincter from each group (young, aged, aged+8-AG treatment) was fixed in cold 2.5% glutaraldehyde in 0.01 M PBS. The specimens were rinsed in PBS, post-fixed in 1% osmium tetroxide with 1% potassium ferricyanide, rinsed in PBS, dehydrated through a graded series of ethanol and propylene oxide solutions, and embedded in POLY/BED® 812 (Luft formulations). Semi-thin (300 nm) sections were cut on a LEICA® Reichart Ultracut, stained with 0.5% Toluidine Blue in 1% sodium borate and examined under the light microscope. Ultrathin sections (65 nm) were stained with uranyl acetate as well as Reynold's lead citrate and examined on a JEOL 1400 transmission electron microscope with a side mount AMT 2k digital camera (Advanced Microscopy Techniques, Danvers, Mass.)."}}, "note": "Entries after “also recorded” stand apart in the source; their conditions may differ.", "data": [{"smiles": "Nc1nc2[nH]c(N)nc2c(=O)[nH]1", "note": "[8-AG, 8-Aminoguanine]", "values": [{"measurement": "intercontraction interval", "setting": "CYP-treated rats", "value": "attenuates"}, {"measurement": "voiding frequency", "setting": "CYP-treated rats", "value": "attenuates"}, {"measurement": "EUS cleaved caspase 3", "setting": "cleaved caspase 3", "value": "restored to a younger state"}, {"measurement": "cleaved caspase 3 in bladder mucosa", "setting": "cleaved caspase 3", "value": "reversed or restored to levels similar to the younger state; also recorded: restored changes similar to a younger state"}, {"measurement": "cleaved caspase 3 in detrusor smooth muscle", "setting": "cleaved caspase 3", "value": "levels similar to the younger state; also recorded: restored these biomarkers to that of a younger state"}, {"measurement": "hydroxyproline in detrusor smooth muscle", "setting": "hydroxyproline", "value": "levels similar to the younger state; also recorded: restored these biomarkers to that of a younger state"}, {"measurement": "external urethral sphincter (striated muscle) and mitochondrial morphology", "setting": "[1]", "value": "restored to a younger state; also recorded: reversed to a younger state"}, {"measurement": "urethral smooth muscle and mitochondrial morphology", "setting": "[1]", "value": "restored to a younger state; also recorded: reversed to a younger state"}]}]}
